# From patent US20240299504A1, “COMPOSITIONS AND METHODS FOR TREATING ALZHEIMERS DISEASE” (priority 2023, published 2024)
# Test system: 5×FAD mice
# Assay: Y-maze test
# Type: in vivo, mouse
# Protocol: Parathyroid hormone (human) was purchased from TOCRIS Bioscience (Cat #3011/1, Abingdon, United Kingdom). WT or 5×FAD mice (both male and female) were treated with PTH1-34 intermittently [once daily injection of hPTH1-34 (50 μg/Kg) or vehicle (0.9% sodium chloride) (as a control) by subcutaneous injection, starting at 2-MO, 5 days per week] as described previously. Mice were then subjected to behavioral tests and sacrificed for examinations of their bone and brain phenotypes at the indicated ages.
# Mice (female and male) at the age of ˜5-MO were subjected to behavioral studies. The experimental procedures are described as previously. […] The total arm entries and the number of tri-ads were recorded to quantify the percentage of spontaneous alternation. For novel object recognition (NOR), which tests mouse's memory ability for a novel object, 20 min were recorded to analyze the time to explore the old object vs. the new object of each mouse. […] During test trials, one of the objects was replaced with a new object and mice were free to explore for another 20 min, and the time spent exploring the new object and the old object was recorded. The discrimination index is quantified as the novelty object preference, which is the time spent exploring the new object minus the time exploring the old object over the total exploration time.
smiles,measurement,setting,value
CC[C@H](C)[C@H](NC(=O)[C@H](CCC(=O)O)NC(=O)[C@H](CO)NC(=O)[C@@H](NC(=O)[C@@H](N)CO)C(C)C)C(=O)N[C@@H](CCC(N)=O)C(=O)N[C@@H](CC(C)C)C(=O)N[C@@H](CCSC)C(=O)N[C@@H](Cc1cnc[nH]1)C(=O)N[C@@H](CC(N)=O)C(=O)N[C@@H](CC(C)C)C(=O)NCC(=O)N[C@@H](CCCCN)C(=O)N[C@@H](Cc1cnc[nH]1)C(=O)N[C@@H](CC(C)C)C(=O)N[C@@H](CC(N)=O)C(=O)N[C@@H](CO)C(=O)N[C@@H](CCSC)C(=O)N[C@@H](CCC(=O)O)C(=O)N[C@@H](CCCN=C(N)N)C(=O)N[C@H](C(=O)N[C@@H](CCC(=O)O)C(=O)N[C@@H](Cc1c[nH]c2ccccc12)C(=O)N[C@@H](CC(C)C)C(=O)N[C@@H](CCCN=C(N)N)C(=O)N[C@@H](CCCCN)C(=O)N[C@@H](CCCCN)C(=O)N[C@@H](CC(C)C)C(=O)N[C@@H](CCC(N)=O)C(=O)N[C@@H](CC(=O)O)C(=O)N[C@H](C(=O)N[C@@H](Cc1cnc[nH]1)C(=O)N[C@@H](CC(N)=O)C(=O)N[C@@H](Cc1ccccc1)C(=O)O)C(C)C)C(C)C [PTH1-34],Y maze spontaneous alternation,5×FAD female mice ~5-MO vs Veh-treated 5×FAD female,an increase in spontaneous alternation
same,Y maze spontaneous alternation,5×FAD male mice ~5-MO vs Veh,positive effect on the spontaneous alternation
